Data taken from publication PMC5346980 (ACS Medicinal Chemistry Letters, 2017).
Where two headings read alike, the source gives them in different places. Values belong to the compound of their own block, whether it stands above or below them.

Columns and labels:
[1] = molecular target: Purified Hb (Homo sapiens, UniProt P69905); assay: Time dependence of hemoglobin-oxygen affinity; format: biochemical; settings: Purified Hb 25 µM, 37 °C
[2] = monkeys; cited from earlier work
[3] = molecular target: CYP2C19 (Homo sapiens, UniProt P33261); assay: Time-dependent CYP inhibition; format: in vitro ADME
CYP2C19, sequence (P33261 whole entry): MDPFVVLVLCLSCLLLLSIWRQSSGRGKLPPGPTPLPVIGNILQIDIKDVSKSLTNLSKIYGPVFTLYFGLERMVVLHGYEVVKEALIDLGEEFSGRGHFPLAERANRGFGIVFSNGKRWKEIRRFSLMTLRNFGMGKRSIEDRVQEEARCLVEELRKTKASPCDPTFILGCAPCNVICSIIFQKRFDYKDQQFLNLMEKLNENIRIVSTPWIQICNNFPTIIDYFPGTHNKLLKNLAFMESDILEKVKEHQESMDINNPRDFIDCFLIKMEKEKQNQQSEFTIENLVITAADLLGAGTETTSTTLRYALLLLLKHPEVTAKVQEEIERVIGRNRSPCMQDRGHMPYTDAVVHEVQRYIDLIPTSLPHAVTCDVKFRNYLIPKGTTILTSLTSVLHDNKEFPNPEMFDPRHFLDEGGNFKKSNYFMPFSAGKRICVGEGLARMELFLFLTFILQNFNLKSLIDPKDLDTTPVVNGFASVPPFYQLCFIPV

[4] = molecular target: P-gp (Homo sapiens, UniProt P08183); assay: Transporter substrate assessment; format: in vitro ADME
P-gp, sequence (P08183 whole entry): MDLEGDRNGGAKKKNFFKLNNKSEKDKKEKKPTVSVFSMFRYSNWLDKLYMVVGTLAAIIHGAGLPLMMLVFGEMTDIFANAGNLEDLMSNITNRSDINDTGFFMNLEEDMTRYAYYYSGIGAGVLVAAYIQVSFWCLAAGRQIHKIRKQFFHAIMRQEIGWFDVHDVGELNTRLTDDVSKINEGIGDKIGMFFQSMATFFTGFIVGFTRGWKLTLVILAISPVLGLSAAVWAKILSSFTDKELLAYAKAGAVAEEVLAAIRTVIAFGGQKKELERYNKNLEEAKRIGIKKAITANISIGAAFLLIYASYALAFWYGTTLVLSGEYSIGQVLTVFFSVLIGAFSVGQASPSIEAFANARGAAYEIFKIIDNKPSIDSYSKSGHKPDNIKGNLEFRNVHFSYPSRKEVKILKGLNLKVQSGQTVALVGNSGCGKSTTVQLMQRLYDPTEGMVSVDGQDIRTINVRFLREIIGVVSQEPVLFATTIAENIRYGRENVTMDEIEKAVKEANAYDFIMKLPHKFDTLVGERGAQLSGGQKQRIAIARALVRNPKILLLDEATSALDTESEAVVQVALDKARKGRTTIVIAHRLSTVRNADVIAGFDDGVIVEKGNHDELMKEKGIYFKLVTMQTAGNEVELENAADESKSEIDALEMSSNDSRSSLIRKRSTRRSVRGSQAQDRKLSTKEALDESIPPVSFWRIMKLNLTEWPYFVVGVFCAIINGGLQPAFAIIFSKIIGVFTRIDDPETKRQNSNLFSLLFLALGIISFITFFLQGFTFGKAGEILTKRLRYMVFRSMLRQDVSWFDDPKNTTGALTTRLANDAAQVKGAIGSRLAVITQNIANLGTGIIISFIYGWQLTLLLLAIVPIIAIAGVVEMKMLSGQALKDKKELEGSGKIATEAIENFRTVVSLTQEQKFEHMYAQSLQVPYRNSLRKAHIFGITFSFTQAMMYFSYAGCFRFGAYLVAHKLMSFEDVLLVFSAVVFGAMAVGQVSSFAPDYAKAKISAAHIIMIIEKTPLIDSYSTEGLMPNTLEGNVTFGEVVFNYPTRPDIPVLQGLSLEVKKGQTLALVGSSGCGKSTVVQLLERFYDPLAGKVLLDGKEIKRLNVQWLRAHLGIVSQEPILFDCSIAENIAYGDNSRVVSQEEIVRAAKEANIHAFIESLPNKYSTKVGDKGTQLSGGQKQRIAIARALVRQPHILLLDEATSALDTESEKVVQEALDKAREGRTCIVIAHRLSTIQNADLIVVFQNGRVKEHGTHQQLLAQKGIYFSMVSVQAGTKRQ

[5] = dogs; cited from earlier work
[6] = molecular target: T1, BCRP (Homo sapiens, UniProt Q9UNQ0); assay: Transporter substrate assessment; format: in vitro ADME
T1 sequence (Q9UNQ0 1-655): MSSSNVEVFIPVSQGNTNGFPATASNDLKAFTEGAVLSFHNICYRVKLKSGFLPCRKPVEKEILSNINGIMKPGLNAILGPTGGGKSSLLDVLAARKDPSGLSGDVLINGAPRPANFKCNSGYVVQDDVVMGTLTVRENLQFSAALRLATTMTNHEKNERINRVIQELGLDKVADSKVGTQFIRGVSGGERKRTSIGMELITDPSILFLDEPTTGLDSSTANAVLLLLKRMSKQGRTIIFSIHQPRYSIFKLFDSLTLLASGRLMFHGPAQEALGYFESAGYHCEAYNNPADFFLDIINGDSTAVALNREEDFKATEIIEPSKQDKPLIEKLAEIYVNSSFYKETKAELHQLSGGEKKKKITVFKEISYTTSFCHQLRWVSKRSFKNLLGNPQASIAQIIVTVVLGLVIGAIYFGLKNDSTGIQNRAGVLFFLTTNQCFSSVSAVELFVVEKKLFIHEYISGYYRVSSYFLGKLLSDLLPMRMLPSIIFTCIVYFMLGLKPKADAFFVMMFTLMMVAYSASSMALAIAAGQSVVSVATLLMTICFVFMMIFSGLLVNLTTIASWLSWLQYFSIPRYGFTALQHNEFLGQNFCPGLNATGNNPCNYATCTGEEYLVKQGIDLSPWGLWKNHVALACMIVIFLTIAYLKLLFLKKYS

[7] = molecular target: CYP3A4 (Homo sapiens, UniProt P08684); assay: Time-dependent CYP inhibition; format: in vitro ADME
CYP3A4, sequence (P08684 whole entry): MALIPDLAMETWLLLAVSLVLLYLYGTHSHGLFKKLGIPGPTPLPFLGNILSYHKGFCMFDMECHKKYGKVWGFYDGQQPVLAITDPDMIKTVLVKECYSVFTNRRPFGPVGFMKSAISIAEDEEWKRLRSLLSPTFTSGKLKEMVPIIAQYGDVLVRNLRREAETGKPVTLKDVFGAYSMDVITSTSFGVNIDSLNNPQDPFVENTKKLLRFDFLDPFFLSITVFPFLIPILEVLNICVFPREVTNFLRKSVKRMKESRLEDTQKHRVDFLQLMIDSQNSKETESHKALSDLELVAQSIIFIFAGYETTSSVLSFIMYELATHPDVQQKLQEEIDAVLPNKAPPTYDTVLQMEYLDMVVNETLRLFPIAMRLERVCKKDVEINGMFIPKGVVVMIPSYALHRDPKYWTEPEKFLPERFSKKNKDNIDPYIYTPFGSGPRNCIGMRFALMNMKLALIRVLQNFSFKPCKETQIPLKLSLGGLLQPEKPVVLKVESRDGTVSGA

[8] = rats; cited from earlier work
[9] = molecular target: purified Hb (a mixture of HbA and HbS) (Homo sapiens, UniProt P69905); assay: Hemoximetry oxygen equilibrium curves; format: biochemical; settings: des-formyl compound lacking the aldehyde
purified Hb (a mixture of HbA and HbS), sequence (P69905 2-142 limits assumed): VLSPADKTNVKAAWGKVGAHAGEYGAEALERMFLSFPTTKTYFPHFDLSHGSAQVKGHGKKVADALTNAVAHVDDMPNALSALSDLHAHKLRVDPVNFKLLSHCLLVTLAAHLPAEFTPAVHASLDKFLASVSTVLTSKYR

Purified Hb, sequence (P69905 2-142 limits assumed): as above

time to maximum effect on Hb oxygenation (surrogate for on-rate) ([1]; compound 5 mM): ~1 h
Structure (SMILES): O=Cc1ccc(CO)o1 [Compound 1, 5-hydroxymethylfurfural]

time to maximum effect on Hb oxygenation (surrogate for on-rate) ([1]; compound 100 µM): ~1 h
Structure (SMILES): COc1ccc(OCc2cccnc2)c(C=O)c1 [Compound 4]

time-dependent inhibition [3]: no significant time-dependent inhibition | substrate for P-gp transporter [4]: not a substrate | substrate for BCRP transporter [6]: not a substrate | time-dependent inhibition [7]: no significant time-dependent inhibition
Structure (SMILES): CC(C)n1nccc1-c1ncccc1COc1cccc(O)c1C=O [Compound 36]
blood and plasma half-lives [2]: approximately 20 h | blood and plasma half-lives [5]: approximately 20 h | blood and plasma half-lives [8]: approximately 20 h

activity as Hb allosteric modulator (result in words) [9]: inactive
Structure (SMILES): COc1ccc(OCc2cccnc2-c2ccnn2C(C)C)cn1 [Compound 46]
